Here are results for five compounds from patent US20260125417A1, “GLUCOCORTICOID RECEPTOR AGONISTS” (ELI LILLY AND COMPANY, priority 2022, published 2026).

pEC50: −log10 of the molar value.

What is called pEC50 is the EC50 on a negative log10 scale, so that one unit is a factor of ten.

The experiment has as its target T1, GR-LBD (Homo sapiens, UniProt P04150).
T1 construct: purchased Life Technologies A15899
T1 sequence (P04150 524-758 limits assumed): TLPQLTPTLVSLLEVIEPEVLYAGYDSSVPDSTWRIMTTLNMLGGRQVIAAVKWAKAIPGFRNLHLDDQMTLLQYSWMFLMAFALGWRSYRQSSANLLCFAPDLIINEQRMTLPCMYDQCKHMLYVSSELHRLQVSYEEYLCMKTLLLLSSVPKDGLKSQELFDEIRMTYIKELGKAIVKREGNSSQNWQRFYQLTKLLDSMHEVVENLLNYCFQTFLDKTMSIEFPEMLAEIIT
In words: hGR CoActivator Recruitment Assay (LanthaScreen TR-Fret GR Coactivator Assay). The format is biochemical. To be noted: Fluorescein-SRC1-4 recruitment to GR-LBD, 10-point dilution, top concentration 200 nM, positive control 4 μM dexamethasone. On the procedure:
Example 4. hGR CoActivator Recruitment Assay The activity of glucocorticoid compounds was measured using the LanthaScreen TR-Fret GR Coactivator Assay from Life Technologies (A15899). The compounds were acoustically transferred to an assay plate in a 3-fold 10-point serial dilution with atop concentration of 200 nM. Ten microliters of a 2× solution of GR-LBD was added to the compound plate and incubated for 10 min. Then ten microliters of a 2× solution of Fluoresein-SRC1-4 and Tb labelled anti-GST antibody were added to the plate. The plate was incubated in the dark for two hours and then read on an Envision plate reader, with excitation at 340 nm and emission at 520 nm (Fluorescein) and 490 nm (Terbium). The emission ratio of 520/490 was analyzed in Genedata. To obtain percent activity, the data was compared to a negative control of DMSO and positive control of 4 μM dexamethasone.
(In general: Time-resolved FRET reads energy transfer from a long-lived donor to a nearby acceptor.)
With `[2H]C([2H])([2H])Oc1ccc(OCc2cccc(N)c2)c(F)c1[C@H]1O[C@@H]2C[C@H]3[C@@H]4CCC5=CC(=O)C=C[C@]5(C)[C@H]4[C@@H](O)C[C@]3(C)[C@]2(C(=O)CO)O1` [Compound No. 1], the negative logarithm of the EC50 (pEC50) is 8.71.
The result for `CCc1ccc(OCc2cccc(N)c2)c(F)c1[C@H]1O[C@@H]2C[C@H]3[C@@H]4CCC5=CC(=O)C=C[C@]5(C)[C@H]4[C@@H](O)C[C@]3(C)[C@]2(C(=O)CO)O1` [compound 2, (6aR,6bS,7S,8aS,8bS,10S,11aR,12aS,12bS)-10-(3-((3-aminobenzyl)oxy)-6-ethyl-2-fluorophenyl)-7-hydroxy-8b-(2-hydroxyacetyl)-6a,8a-dimethyl-1,2,6a,6b,7,8,8a,8b,11a,12,12a,12b-dodecahydro-4H-naphtho[2′,1′:4,5]indeno[1,2-d][1,3]dioxol-4-one] reads 8.82; that for `COc1ccc(CCc2ccc(N)cc2)c(F)c1[C@H]1O[C@@H]2C[C@H]3[C@@H]4CCC5=CC(=O)C=C[C@]5(C)[C@H]4[C@@H](O)C[C@]3(C)[C@]2(C(=O)CO)O1` [compound 3, (6aR,6bS,7S,8aS,8bS,10S,11aR,12aS,12bS)-10-(3-(4-aminophenethyl)-2-fluoro-6-methoxyphenyl)-7-hydroxy-8b-(2-hydroxyacetyl)-6a,8a-dimethyl-1,2,6a,6b,7,8,8a,8b,11a,12,12a,12b-dodecahydro-4H-naphtho[2′,1′:4,5]indeno[1,2-d][1,3]dioxol-4-one], 8.78.
The result for `COc1ccc(OCCc2ccc(N)cc2)c(F)c1[C@H]1O[C@@H]2C[C@H]3[C@@H]4CCC5=CC(=O)C=C[C@]5(C)[C@H]4[C@@H](O)C[C@]3(C)[C@]2(C(=O)CO)O1` [compound 4, (6aR,6bS,7S,8aS,8bS,10S,11aR,12aS,12bS)-10-(3-(4-aminophenethoxy)-2-fluoro-6-methoxyphenyl)-7-hydroxy-8b-(2-hydroxyacetyl)-6a,8a-dimethyl-1,2,6a,6b,7,8,8a,8b,11a,12,12a,12b-dodecahydro-4H-naphtho[2′,1′:4,5]indeno[1,2-d][1,3]dioxol-4-one] reads 8.83; that for `COc1ccc(OCCc2cccc(N)c2)c(F)c1[C@H]1O[C@@H]2C[C@H]3[C@@H]4CCC5=CC(=O)C=C[C@]5(C)[C@H]4[C@@H](O)C[C@]3(C)[C@]2(C(=O)CO)O1` [compound 5, (6aR,6bS,7S,8aS,8bS,10S,11aR,12aS,12bS)-10-(3-(3-aminophenethoxy)-2-fluoro-6-methoxyphenyl)-7-hydroxy-8b-(2-hydroxyacetyl)-6a,8a-dimethyl-1,2,6a,6b,7,8,8a,8b,11a,12,12a,12b-dodecahydro-4H-naphtho[2′,1′:4,5]indeno[1,2-d][1,3]dioxol-4-one], 8.65.
